Laboratory results as given in PubChem BioAssay (NCI).
Several values for one entry are separate records, joined by “and”; a condition that tells them apart may be missing. Equal values may be shown once.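 Tested at 5 concentrations; 48 h exposure; 96-well plates; endpoints linearly interpolated, else capped at highest concentration. GI50 = concentration required for 50% inhibition of growth. The concentration for full growth arrest is given as TGI.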

Legend:
Test in all cases: NCI anticancer screen, dose series, 48 h
[1] = tested on: 786-0 renal
[2] = tested on: ACHN renal
[3] = tested on: BT-549 breast
[4] = tested on: CAKI-1 renal
[5] = tested on: EKVX NSCLC
[6] = tested on: HOP-92 NSCLC
[7] = tested on: KM12 colon
[8] = tested on: M14 melanoma
[9] = tested on: MDA-N
[10] = tested on: OVCAR-8 ovarian
[11] = tested on: SK-MEL-2 melanoma
[12] = tested on: SK-MEL-5 melanoma
[13] = tested on: SR leukemia

| Compound | TGI [1] | TGI [2] | TGI [3] | TGI [4] | TGI [5] | TGI [6] | TGI [7] | TGI [8] | TGI [9] | TGI [10] | TGI [11] | TGI [12] | TGI [13] | GI50 [8] | GI50 [9] | GI50 [10] | GI50 [12] | GI50 [13] |
| --- | --- | --- | --- | --- | --- | --- | --- | --- | --- | --- | --- | --- | --- | --- | --- | --- | --- | --- |
| CCOC(=O)c1cnc2n(c1=N)[C@H]1CCCC[C@@H]1N2 | > 100 µM | > 100 µM | > 100 µM | > 100 µM | > 100 µM | > 100 µM | > 100 µM | > 100 µM | > 100 µM | > 100 µM | > 100 µM | > 100 µM | > 100 µM |  |  |  |  |  |
| C=C(C)[C@H]1C=C[C@@H](OC(=O)c2cccnc2)[C@@]23CO[C@@](C)([C@H](OC(=O)c4cccnc4)[C@@]4(OC(C)=O)C[C@H](C)[C@H](OCCC)[C@@H]4[C@H]2OC(C)=O)[C@H]13 | > 15 µM | > 15 µM | > 15 µM | > 15 µM | > 15 µM | > 15 µM | > 15 µM | > 15 µM | > 15 µM | > 15 µM | > 15 µM | > 15 µM | > 15 µM |  |  |  |  |  |
| CC(NC(=O)c1ccccc1)NC(=O)C(C)C(=O)Nc1ccccc1 (stereo not given) | > 100 µM | > 100 µM | > 100 µM | > 100 µM | > 100 µM | > 100 µM | > 100 µM | > 100 µM | > 100 µM | > 100 µM | > 100 µM | > 100 µM | > 100 µM |  |  |  |  |  |
| COc1ccc(C(CC(=O)C(C)(C)CN2CCCCC2)SCCS(=O)(=O)O)cc1 (stereo not given) | 60.7 µM | > 100 µM | > 100 µM | > 100 µM | > 100 µM | 47.2 µM | > 100 µM | 57.2 µM | 96.2 µM | > 100 µM | > 100 µM | 62.5 µM | 49.7 µM |  |  |  |  |  |
| CCN(CC)CCNC(=O)c1cc2cc(NC(=O)c3cc4cc(NC(=O)c5cc6cc(N)ccc6[nH]5)ccc4[nH]3)ccc2[nH]1 | > 100 µM | > 100 µM | > 100 µM | > 100 µM | > 100 µM | > 100 µM | > 100 µM | > 100 µM | > 100 µM | > 100 µM | > 100 µM | > 100 µM | > 100 µM |  |  |  |  |  |
| Nc1ccn(C2CCC(CO)O2)c(=S)n1 (stereo not given) | > 100 µM | > 100 µM | > 100 µM | > 100 µM | > 100 µM | > 100 µM | > 100 µM | > 100 µM | > 100 µM | > 100 µM | > 100 µM | > 100 µM | > 100 µM |  |  |  |  |  |
| CO/N=C(\C(=O)N(C)n1cnnc1)c1csc(NC(c2ccccc2)(c2ccccc2)c2ccccc2)n1 | > 10 µM | > 10 µM | > 10 µM | > 10 µM | > 10 µM | > 10 µM | > 10 µM | > 10 µM | > 10 µM | > 10 µM | > 10 µM | > 10 µM | > 10 µM |  |  |  |  |  |
| O=c1oc2ccccc2c(O)c1/C=N/C(=S)NCCc1ccccc1 | > 100 µM | > 85.6 µM | > 84.7 µM | > 100 µM | > 100 µM | > 74.7 µM | > 100 µM | > 100 µM | > 100 µM | > 100 µM | > 85.1 µM | > 100 µM | 41.7 µM |  |  |  |  |  |
| COc1ccc2[nH]cc([C@@H]3C4CCC(C4)[C@H]3NCc3cccc(CN[C@H]4C5CCC(C5)[C@@H]4c4c[nH]c5ccc(OC)cc45)c3)c2c1 | 1.9 µM and 2 µM | 2.55 µM and 3.16 µM | 3.16 µM and 3.18 µM | 2.79 µM and 3.21 µM | 2.91 µM and 2.89 µM | 2.6 µM and 2.59 µM | 0.95 µM and 1.34 µM | 1.41 µM and 1.5 µM | 2.04 µM and 2.2 µM | 1.86 µM and 2.35 µM | 2.91 µM and 2.99 µM | 2.52 µM and 2.99 µM | 0.78 µM and 1 µM | 0.423 µM | 0.776 µM | 0.625 µM | 1.25 µM | 0.28 µM |
| CC(=O)CSc1c(-c2ccccc2)c(=O)n(-c2ccccc2)c(=S)n1-c1ccccc1 | > 100 µM | > 100 µM | > 100 µM | > 100 µM | > 100 µM | > 100 µM | > 100 µM | > 100 µM | > 100 µM | > 100 µM | > 100 µM | > 100 µM | > 100 µM |  |  |  |  |  |
| O=C(c1ccccc1)c1ccc(-n2c3ccccc3c3ccc4c(c32)C(=O)C=CC4=O)cc1 | 5.77 µM | 11.6 µM | 38.5 µM | 4.4 µM | 26.3 µM | 18.6 µM | 37.5 µM | 23.6 µM | 40.6 µM | 27.2 µM | 37.3 µM | 43 µM | > 34 µM |  |  |  |  |  |
| Cc1cc(S(=O)(=O)Nc2cc(N)[nH]n2)c(SCc2nc(N)nc(N(C)C)n2)cc1Cl | > 10 µM | > 10 µM | > 10 µM | > 10 µM | > 10 µM | > 10 µM | > 10 µM | > 10 µM | > 10 µM | > 10 µM | > 10 µM | > 10 µM | > 10 µM |  |  |  |  |  |
| CN(C)P(=O)(Oc1ccc(CC(NC(=O)OCc2ccccc2)C(=O)OCc2ccccc2)cc1)N(C)C (stereo not given) | 17.5 µM | 33.9 µM | 32.4 µM | 32.8 µM | 32.2 µM | 34.9 µM | 40.3 µM | 32 µM | 34 µM | 33.2 µM | 31.5 µM | 38.1 µM | 24.6 µM |  |  |  |  |  |
| CNC(=O)N(CCC#N)CCCN(C(=O)NC)c1ccccc1 | > 100 µM | > 100 µM | > 100 µM | > 100 µM | > 100 µM | > 100 µM | > 100 µM | > 100 µM | > 100 µM | > 100 µM | > 100 µM | > 100 µM | > 100 µM |  |  |  |  |  |
| Cc1oc2c(Cl)cc(O)c(Cl)c2c2cccc1-2 | 76 µM | > 100 µM | 74.2 µM | > 100 µM | 54.6 µM | 52.1 µM | 47.4 µM | > 100 µM | 60.3 µM | 82.6 µM | > 100 µM | 52.1 µM | 77 µM |  |  |  |  |  |
